From patent US20240024216A1, “METHODS AND MATERIALS FOR TREATING HAIR LOSS” (The Penn State Research Foundation, priority 2021, published 2024)

Tested on: human foreskin primary keratinocytes
Assay: Keratinocyte scratch assay with 4-AP, NGF and NGF-antibody
Format: cell-based
Details: at 12 hours
Protocol: Keratinocytes (7×10^4 cells/well) with KC medium were seeded on collagen-I pre-coated 96-well ImageLock microplate for 6 hours. For the drug treatment cells were pretreated with 4-AP prior to coating for 16-18 hours. Next, the wound scratch was created using IncuCyte automated system. After scratches the cells washed with PBS and the respective cells medium was added with individual 1 mM of 4-AP and 200 ng/ml of NGF (MyBioSource, Inc., Catlog No. MBS7114974) in keratinocytes medium and combination of 1 mM of 4-AP & 200 ng/mL NGF with or without 10 μg/ml of NGF-antibody (ThermoFisher Scientific, Catlog No. MA5-32067). The plate was incubated in Incucyte automated imaging system, wound healing and cells migration imaged for every hour until 24 hour and analyzed for percent of closure as described above procedure.

“NGF: nerve growth factor (NGF), MyBioSource, used at 200 ng/ml in keratinocyte scratch assay” was tested, and the scratch closure (56% in control cultures, 1 mM 4-AP, 200 ng/ml NGF) was 75% and the “scratch closure with NGF-neutralizing antibody” value (plus 10 μg/ml NGF-antibody) was 67%.
